Earlier results on one molecule are cited in US10632107B2, “Crystalline forms of benzoquinoline inhibitors of vesicular monoamine transporter 2” (Apotex Inc., priority 2018, dated 2020).

SMILES strings stand for the structures. Like-named read-outs stand apart in the source and are kept apart here.

With `COc1cc2c(cc1OC)C1CC(=O)C(CC(C)C)CN1CC2` (racemic) [Tetrabenazine, rel-(3R,11bR)-1,3,4,6,7,11b-hexahydro-9,10-dimethoxy-3-(2-methylpropyl)-2H-benzo[a]quinolizin-2-one], the solubility entry is recorded as “slight solubility” (low pH of the stomach) and “practically insoluble” (pH values of greater than 4).
